In the supplement of paper PMC8612539:

System: Histophilus somni
Assay: minimum inhibitory concentration (MIC)
Procedure: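 Broth microdilution MIC (Sensititre BOPO7F bovine plate, CLSI methods) of 19 antimicrobials against field isolates of P. multocida, M. haemolytica, H. somni (deep nasopharyngeal swabs) and E. coli, Enterococcus spp. (rectal swabs) from weaned dairy heifers. Incubation 16-24 h at 35 C. MIC is the lowest concentration preventing visible growth. Values with <= or > lie at the tested range limits. Trimethoprim-sulfamethoxazole is given as the trimethoprim component of a 1:19 mixture.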

Measured: minimum inhibitory concentration

CCCN1C[C@H](C)[C@@H](O)[C@](C)(O)[C@@H](CC)OC(=O)[C@H](C)[C@@H](O[C@H]2C[C@@](C)(OC)[C@@H](O)[C@H](C)O2)[C@H](C)[C@@H](O[C@@H]2O[C@H](C)C[C@H](N(C)C)[C@H]2O)[C@](C)(O)C[C@H]1C [Gamithromycin]
≤ 1 µg/mL: isolate (source animal id): 206 | isolate (source animal id): 208 | isolate (source animal id): 210 | isolate (source animal id): 212 | isolate (source animal id): 215 | isolate (source animal id): 216 | isolate (source animal id): 218 | isolate (source animal id): 219 | isolate (source animal id): 224 | isolate (source animal id): 228 | isolate (source animal id): 230 | isolate (source animal id): 233 | isolate (source animal id): 238 | isolate (source animal id): 239 | isolate (source animal id): 241 | isolate (source animal id): 242 | isolate (source animal id): 243 | isolate (source animal id): 245 | isolate (source animal id): 246 | isolate (source animal id): 247 | isolate (source animal id): 248 | isolate (source animal id): 250 | isolate (source animal id): 251 | isolate (source animal id): 252 | isolate (source animal id): 254 | isolate (source animal id): 258 | isolate (source animal id): 259 | isolate (source animal id): 262 | isolate (source animal id): 264 | isolate (source animal id): 265 | isolate (source animal id): 266 | isolate (source animal id): 267 | isolate (source animal id): 269 | isolate (source animal id): 271 | isolate (source animal id): 272 | isolate (source animal id): 274 | isolate (source animal id): 276 | isolate (source animal id): 278 | isolate (source animal id): 280 | isolate (source animal id): 281 | isolate (source animal id): 283 | isolate (source animal id): 288 | isolate (source animal id): 291 | isolate (source animal id): 292 | isolate (source animal id): 296 | isolate (source animal id): 306 | isolate (source animal id): 336 | isolate (source animal id): 337 | isolate (source animal id): 341
